Results on two compounds are retold here after patent US11369612B2, “Treatment of RSV with combination product” (Janssen Sciences Ireland Unlimited Company, priority 2017, dated 2022).

This test has as its system rgRSV224. In words: microbe, parasite or virus in culture. In kind it is cell-based, RSV. The note with it: for normalized data (GFP response): average across 12 replicates. On the procedure:
To evaluate their combined antiviral effect against RSV, in vitro combination studies were performed with Compound A, i.e. 3-({5-chloro-1-[3-(methylsulfonyl)propyl]-1H-indol-2-yl}methyl)-1-(2,2,2-trifluoroethyl)-1,3-dihydro-2H-imidazo[4,5-c]pyridin-2-one, and Compound B, i.e. (1S,2S)-2-[4-[7-cyclopropyl-5-[(1R)-1-methyl-3,4-dihydro-1H-isoquinoline-2-carbonyl]pyrazolo[1,5-a]pyrimidin-2-yl]-3-fluoro-phenyl]cyclopropanecarboxylic acid. In short, 9 concentrations of Compound A were combined with 6 or 7 concentrations of Compound B. HeLa cells were infected with rgRSV224, an engineered RSV strain that encodes for eGFP (Hallak L K, Spillmann D, Collins P L, Peeples M E. Glycosaminoglycan sulfation requirements for respiratory syncytial virus infection; Journal of Virology (2000), 74(22), 10508-13), in the presence of various concentrations of compound A and compound B individually or in combination.
Compound stock solutions were 5 mM in 100% DMSO. First, the compounds were serially diluted in 3-fold dilution series in DMSO. The concentration series were diluted 100-fold in cell culture medium to achieve a combination matrix. 10 μL of these compound solutions were transferred to black 384-well clear-bottom tissue-culture treated plates. Next, 10 μL of a […] HeLa cell suspension was added to achieve 3000 cells per well. Finally, 10 μL of diluted virus stock was added to achieve an MOI of 1. The final DMSO concentration of all wells was 0.5% DMSO. Each combination of compound concentrations was tested in 4 replicates on 3 separate plates, resulting in a total of 12 replicates. The plates were incubated for 3 days at 37° C. in a humidified atmosphere at 5% CO2. The GFP signal was measured with PerkinElmer EnVision apparatus using a 405 nm filter.
The method of Harbron (Statistics in Medicine, 2010, DOI:10.1002/sim3916) was used to assess synergy. Using the Loewe definition, two compounds are characterized as being additive, synergistic or antagonistic by:
where d1 and d2 represent the doses of the two compounds that in combination produce an effect y, and Dy,1 and Dy,2 represent the doses of the two compounds that produce the same effect, y, when administered as a monotherapy. A 3PL model (3-parameter log-logistic model) was used for the monotherapy dose-response data, where the baseline response was fixed at one.
Following Harbron's approach, the following models were fitted to the data: • “Additive”: assuming no interaction between the two compounds • “Uniform”: assuming a constant interaction index τ across all dose combinations • “Linear A”: assuming the interaction index linearly depends on the log 10 dose of compound A: τ=τ1+τ2 log 10(dA) • “Separate A”: assuming the interaction index τ takes a separate value for each dose of compound A
The latter two models were also considered for compound B: • “Linear B”: assuming the interaction index linearly τ depends on the log 10 dose of compound B: τ=τ1+τ2 log 10(dB) • “Separate B”: assuming the interaction index τ takes a separate value for each dose of compound B

Take `CS(=O)(=O)CCCn1c(Cn2c(=O)n(CC(F)(F)F)c3ccncc32)cc2cc(Cl)ccc21` [Compound A, 3-({5-chloro-1-[3-(methylsulfonyl)propyl]-1H-indol-2-yl}methyl)-1-(2,2,2-trifluoroethyl)-1,3-dihydro-2H-imidazo[4,5-c]pyridin-2-one]: the “normalized data (GFP response)” value runs as follows: (A = 0.19, B = 0) 1.07; (A = 0.57, B = 0) 1.05; (A = 1.7, B = 0) 0.99; (A = 5.1, B = 0) 0.74; (A = 15, B = 0) 0.48; (A = 46, B = 0) 0.29. Further, the “normalized data (GFP response)” value is, setting by setting: (A = 139, B = 0) 0.18; (A = 417, B = 0) 0.08; (A = 1250, B = 0) 0.06. Where the note is “human respiratory syncytial virus, HeLa, read-out: EC50 (dose at τ EC50)”, the EC50 was 13.1 nM.

`C[C@@H]1c2ccccc2CCN1C(=O)c1cc(C2CC2)n2nc(-c3ccc([C@H]4C[C@@H]4C(=O)O)cc3F)cc2n1` [Compound B, (1S,2S)-2-[4-[7-cyclopropyl-5-[(1R)-1-methyl-3,4-dihydro-1H-isoquinoline-2-carbonyl]pyrazolo[1,5-a]pyrimidin-2-yl]-3-fluoro-phenyl]cyclopropanecarboxylic acid]: the “normalized data (GFP response)” value (A = 0, B = 4.6) is 1.13; the “normalized data (GFP response)” value (A = 0, B = 14) came out at 1.04; the “normalized data (GFP response)” value (A = 0, B = 42) worked out at 0.37; the “normalized data (GFP response)” value (A = 0, B = 125) came out at 0.07; the “normalized data (GFP response)” value (A = 0, B = 375) is given as 0.00; the “normalized data (GFP response)” value (A = 0, B = 1125) was 0.00.
